Tests used:
Test in all cases: relative viability (nuclei count vs DMSO), 5 days (fraction); higher = more cells survive
FH535 + Lapatinib = compound: CC1=C(C=CC(=C1)[N+](=O)[O-])NS(=O)(=O)C2=C(C=CC(=C2)Cl)Cl [FH535] + CS(=O)(=O)CCNCc1ccc(-c2ccc3ncnc(Nc4ccc(OCc5cccc(F)c5)c(Cl)c4)c3c2)o1 [Lapatinib] (partner 2 µM)
How it was run: (§1)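 Relative viability was taken as the ratio of nuclei in treated wells to nuclei in vehicle wells. Lung cancer cell lines in 1536-well plates received compounds by pin tool one day after seeding, either one drug alone or a fixed anchor-drug dose plus five library-drug doses (not always all listed) in √10 steps. Nuclei were counted on 4× images after 5 days of treatment, and values are medians of duplicate plates.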

FH535 + AZD7762 = compound: CC1=C(C=CC(=C1)[N+](=O)[O-])NS(=O)(=O)C2=C(C=CC(=C2)Cl)Cl [FH535] + NC(=O)Nc1cc(-c2cccc(F)c2)sc1C(=O)N[C@H]1CCCNC1 [AZD7762] (partner 0.2 µM)
How it was run: as §1

FH535 + Dasatinib = compound: CC1=C(C=CC(=C1)[N+](=O)[O-])NS(=O)(=O)C2=C(C=CC(=C2)Cl)Cl [FH535] + Cc1nc(Nc2ncc(C(=O)Nc3c(C)cccc3Cl)s2)cc(N2CCN(CCO)CC2)n1 [Dasatinib] (partner 0.075 µM)
How it was run: as §1

FH535 + Alpelisib = compound: CC1=C(C=CC(=C1)[N+](=O)[O-])NS(=O)(=O)C2=C(C=CC(=C2)Cl)Cl [FH535] + Cc1nc(NC(=O)N2CCC[C@H]2C(N)=O)sc1-c1ccnc(C(C)(C)C(F)(F)F)c1 [Alpelisib] (partner 2 µM)
How it was run: as §1

FH535 + Phenformin = compound: CC1=C(C=CC(=C1)[N+](=O)[O-])NS(=O)(=O)C2=C(C=CC(=C2)Cl)Cl [FH535] + N=C(N)NC(=N)NCCc1ccccc1 [Phenformin] (partner 250 µM)
How it was run: as §1

| Cell Line | relative viability (FH535 + Lapatinib; first compound 0.04 µM) | relative viability (FH535 + Lapatinib; first compound 0.1265 µM) | relative viability (FH535 + Lapatinib; first compound 0.4 µM) | relative viability (FH535 + Lapatinib; first compound 1.265 µM) | relative viability (FH535 + AZD7762; first compound 0.04 µM) | relative viability (FH535 + AZD7762; first compound 0.1265 µM) | relative viability (FH535 + AZD7762; first compound 0.4 µM) | relative viability (FH535 + AZD7762; first compound 1.265 µM) | relative viability (FH535 + Dasatinib; first compound 0.04 µM) | relative viability (FH535 + Dasatinib; first compound 0.1265 µM) | relative viability (FH535 + Dasatinib; first compound 0.4 µM) | relative viability (FH535 + Dasatinib; first compound 1.265 µM) | relative viability (FH535 + Alpelisib; first compound 0.04 µM) | relative viability (FH535 + Alpelisib; first compound 0.1265 µM) | relative viability (FH535 + Alpelisib; first compound 0.4 µM) | relative viability (FH535 + Alpelisib; first compound 1.265 µM) | relative viability (FH535 + Phenformin; first compound 0.04 µM) | relative viability (FH535 + Phenformin; first compound 0.1265 µM) | relative viability (FH535 + Phenformin; first compound 0.4 µM) | relative viability (FH535 + Phenformin; first compound 1.265 µM) |
| --- | --- | --- | --- | --- | --- | --- | --- | --- | --- | --- | --- | --- | --- | --- | --- | --- | --- | --- | --- | --- |
| 201T | 1.01 | 0.897 | 0.971 | 0.978 | 0.594 | 0.728 | 0.62 | 0.696 | 0.555 | 0.568 | 0.437 | 0.442 | 1.02 | 1.01 | 1.02 | 1 | 0.402 | 0.45 | 0.397 | 0.321 |
| A-427 | 0.995 | 1.03 | 0.962 | 0.99 | 0.768 | 0.795 | 0.768 | 0.622 | 0.54 | 0.826 | 0.657 | 0.564 | 1.08 | 1.04 | 1.02 | 1.04 | 0.272 | 0.331 | 0.215 | 0.135 |
| ABC-1 | 1.21 | 1.08 | 1.36 | 0.983 | 0.706 | 0.664 | 0.756 | 0.549 | 0.584 | 0.619 | 0.4 | 0.36 | 1.18 | 1.25 | 0.954 | 1.29 | 0.263 | 0.209 | 0.184 | 0.179 |
| BEN | 0.678 | 0.674 | 0.604 | 0.398 | 0.6 | 0.691 | 0.496 | 0.507 | 0.247 | 0.351 | 0.258 | 0.214 | 0.929 | 0.998 | 0.868 | 0.748 | 0.231 | 0.25 | 0.263 | 0.221 |
| CAL-12T | 0.612 | 0.633 | 0.726 | 0.476 | 0.594 | 0.643 | 0.536 | 0.397 | 0.361 | 0.417 | 0.291 | 0.235 | 1.21 | 1.16 | 1.06 | 1.01 | 0.515 | 0.514 | 0.403 | 0.316 |
| COR-L23 | 0.953 | 0.958 | 0.901 | 0.549 |  |  |  |  | 0.447 | 0.437 | 0.38 | 0.222 | 0.799 | 0.718 | 0.681 | 0.499 | 0.423 | 0.486 | 0.342 | 0.217 |
| COR-L 105 | 0.274 | 0.345 | 0.372 | 0.398 |  |  |  |  | 0.292 | 0.325 | 0.314 | 0.333 | 1.09 | 1.17 | 0.789 | 0.971 | 0.411 | 0.461 | 0.405 | 0.382 |
| ChaGo-K-1 |  |  |  |  | 0.797 | 0.927 | 0.771 | 0.729 | 0.581 | 0.563 | 0.54 | 0.563 |  |  |  |  | 0.462 | 0.554 | 0.428 | 0.384 |

Reference: the supplement of paper PMC10307832
